# Results: patent US4720495A, “Benzo[ij]quinolizine-2-carboxylic acids useful for treating bacterial infection” (priority 1985, dated 1988)
# What was measured:
# [1] = test system: Pseudomonas aeruginosa NCTC 10490; assay: minimal inhibitory concentration, in vitro antibacterial activity; format: cell-based; conditions: NCTC10490, 37° C., 20 hours
# Procedure: (§1) The in vitro antibacterial activities of typical examples of the present compounds [I] were evaluated in terms of the minimal inhibitory concentration defined as the lowest concentration of the compound preventing the bacterial growth. The Gram-positive bacteria used as test microorganisms included Bacillus subtilis, Staphylococcus aureus and Streptococcus faecalis, and the Gram-negative bacteria used as test microorganisms included Escherichia coli, Enterobacter cloacae, Klebsiella pneumoniae, Proteus vulgaris, Pseudomonas aeruginosa, Serratia marcescens and Salmonella enteritidis. The minimal inhibitory concentration (cultured at 37° C. for 20 hours) was determined according to the standard method prescribed by the Japan Society of Chemotherapy (CHEMOTHERAPY, Vol. 29, No. 1, p. 76, 1981). The following compounds were used as typical examples of the present compounds [I]. At the end of the chemical name of each compound, its tentative designation is given in Parentheses.
# (§2) For purposes of comparison, the in vitro antibacterial activities of ofloxacin, OPC-7241 and compound α were evaluated according to the same method as described above and the test results thus obtained are also shown in Table 1.
# [2] = test system: Proteus vulgaris ATCC 13315; assay: as above; format: cell-based; conditions: ATCC13315, 37° C., 20 hours
# Procedure: as §1, §2
# [3] = test system: Escherichia coli NIHJ JC-2; assay: as above; format: cell-based; conditions: NIHJJC2, 37° C., 20 hours
# Procedure: as §1, §2
# [4] = test system: Salmonella enteritidis G14; assay: as above; format: cell-based; conditions: Salmonella enterica, 37° C., 20 hours
# Procedure: as §1, §2
# Escherichia coli CI-304 [5] = assay: as above; format: cell-based; conditions: CI304, 37° C., 20 hours
# Procedure: as §1, §2
# [6] = test system: Staphylococcus aureus FDA 209P JC-1; assay: as above; format: cell-based; conditions: FDA209P, 37° C., 20 hours
# Procedure: as §1, §2
# Enterobacter cloacae 963 = assay: as above; format: cell-based; conditions: 37° C., 20 hours
# Procedure: as §1, §2
# [7] = test system: Bacillus subtilis ATCC 6633; assay: as above; format: cell-based; conditions: ATCC6633, 37° C., 20 hours
# Procedure: as §1, §2
# [8] = test system: Serratia marcescens IAM 1184; assay: as above; format: cell-based; conditions: IAM1184, 37° C., 20 hours
# Procedure: as §1, §2
# [9] = test system: Streptococcus faecalis AHU 1085; assay: as above; format: cell-based; conditions: Enterococcus faecalis, AHU1085, 37° C., 20 hours
# Procedure: as §1, §2
# [10] = test system: Klebsiella pneumoniae PCI 602; assay: as above; format: cell-based; conditions: PCI602, 37° C., 20 hours
# Procedure: as §1, §2
# [11] = test system: Gram-negative bacteria (such as Pseudomonas aeruginosa, Serratia marcescens and the like); assay: confirmatory experiment on the antibacterial activity of Compound α; format: cell-based
# Source text: (§3) On the other hand, Compound α has only been reported to be useful as an intermediate material for the preparation of 9-fluoro-6, 7-dihydro-7-hydroxy-5-methyl-1-oxo-1H, 5H-benzo[ij]quinolizine-2-carboxylic acid (Japanese Patent Laid-Open No. 127,099/'76), and no detailed report on its antibacterial activity has been published.
# Gram-positive bacteria = assay: as above; format: cell-based
# Source text: as §3
# [12] = enteral absorbability, serum concentration after oral administration to mice; format: in vivo; conditions: mouse, 50 mg/kg orally, fasted male ICR mice; for concentration at 0.5 h: 30 min.
# Procedure: Using male ICR mice fasted overnight (weighing 20±1 g), the enteral absorbability of some typical examples of the present compounds [I] was tested. This test was carried out by administering 50 mg/kg of each test compound orally to mice and determining its serum concentration 30 minutes, 1 hour, 2 hours and 4 hours after administration. Five mice were used for each test point. At each test point, whole blood was collected from the mice by cardiac puncture and used to prepare serum samples. Concentrations of the test compounds in serum samples were determined by the paper disc method using Escherichia coli CI-304 as the test microorganism.
# For purposes of comparison, the enteral absorbability of ofloxacin and OPC-7241 was tested in the same manner as described above and the results thus obtained are also shown in Table 2.
# Escherichia coli CI-304 [13] = assay: therapeutic effect on experimentally induced infection in mice; format: in vivo, Escherichia coli CI-304 in male ddY strain mice; conditions: CI304, po, 168 h, orally, one hour after inoculation, survival after 7 days
# Procedure: Using male ddY strain mice infected with Escherichia coli CI-304 (in groups of five; weighing 20±1 g), the therapeutic effect of some typical examples of the present compounds [I] was tested. The therapeutic effect was evaluated by administering each test compound orally to infected mice and calculating ED50 from the number of mice surviving after the lapse of 7 days. Infected mice were prepared by suspending cells of the aforesaid Escherichia coli strain in a 5% mucin solution and injecting this suspension into the peritoneal cavity of mice. The dose of the bacterial cells was ten times the minimal lethal dose which had previously been determined by a preliminary test. One hour after inoculation of the bacterial cells, each test compound was administered orally to the mice.
# For purposes of comparison, ofloxacin and OPC-7241 were tested in the same manner as described above and the results thus obtained are also shown in Table 3.
# [14] = 1 mg/mouse (equivalent to 50 mg/kg) orally, cited from earlier work
# [15] = test system: Gram-negative and Gram-positive bacteria; conditions: in vitro tests with Gram-negative and Gram-positive bacteria; cited from earlier work
# [16] = 50 mg/kg orally, fasted mice, after 30 minutes; cited from earlier work
MIC [1] [µg/mL],MIC [2] [µg/mL],MIC [3] [µg/mL],MIC [4] [µg/mL],MIC (Escherichia coli CI-304 [5]) [µg/mL],MIC [6] [µg/mL],MIC (Enterobacter cloacae 963) [µg/mL],MIC [7] [µg/mL],MIC [8] [µg/mL],MIC [9] [µg/mL],MIC [10] [µg/mL],concentration at 0.5 h [12] [ng/mL],concentration at 1 h [12] [ng/mL],concentration at 2 h [12] [ng/mL],concentration at 4 h [12] [ng/mL],SMILES,ED50 (Escherichia coli CI-304 [13]) [mg/kg],further results
3.13,0.1,0.39,0.78,0.2,0.39,0.78,0.1,1.56,0.78,0.1,9300,7800,4100,2200,"CC1CCc2c(N3CCN(C)CC3)c(F)cc3c(=O)c(C(=O)O)cn1c23 (stereo not shown) [OPC-7241, 9-fluoro-6,7-dihydro-5-methyl-8-(4-methyl-1-piperazinyl)-1-oxo-1H, 5H-benzo[ij]quinolizine-2-carboxylic acid, reference compound]",1.7,
0.78,0.1,0.2,0.39,0.1,0.2,0.2,0.1,0.78,0.78,0.1,9000,6200,2600,1200,"CC1COc2c(N3CCN(C)CC3)c(F)cc3c(=O)c(C(=O)O)cn1c23 (stereo not shown) [Ofloxacin, 9-fluoro-3-methyl-10-(4-methyl-1-piperazinyl)-7-oxo-2,3-dihydro-7H-pyrido[1,2,3-de][1,4]benzoxazine-6-carboxylic acid, reference compound]",0.9,"residual concentration in the serum ([14]; 2 hours after administration): 1.5 µg/mL; serum concentration ([14]; fasted mice, after 30 minutes): 10000 ng/mL"
,,,,,,,,,,,,,,,"CCn1cc(C(=O)O)c(=O)c2cc(F)c(N3CCNCC3)cc21 [norfloxacin, 1-ethyl-6-fluoro-1,4-dihydro-7-(1-piperazinyl)-4-oxoquinoline-3-carboxylic acid]",,"antibacterial activity [15]: excellent antibacterial activity; degree of absorption into the serum, average peak value [16]: 1 ± 0.6 µg/mL"

SMILES,MIC [1] [µg/mL],MIC [2] [µg/mL],MIC [3] [µg/mL],MIC [4] [µg/mL],MIC (Escherichia coli CI-304 [5]) [µg/mL],MIC [6] [µg/mL],MIC (Enterobacter cloacae 963) [µg/mL],MIC [7] [µg/mL],MIC [8] [µg/mL],MIC [9] [µg/mL],MIC [10] [µg/mL],concentration at 0.5 h [12] [ng/mL],concentration at 1 h [12] [ng/mL],concentration at 2 h [12] [ng/mL],concentration at 4 h [12] [ng/mL],ED50 (Escherichia coli CI-304 [13]) [mg/kg],further results
"CC1CC(=O)c2cc(F)cc3c(=O)c(C(=O)O)cn1c23 (stereo not drawn) [Compound α, 9-fluoro-6,7-dihydro-1,7-dioxo-5-methyl-1H, 5H-benzo[ij]quinolizine-2-carboxylic acid, reference compound]",> 100,25,25,50,12.5,> 100,12.5,12.5,> 100,> 100,12.5,,,,,,efficacy against Gram-negative bacteria [11]: utterly ineffective; efficacy against Gram-positive bacteria (Gram-positive bacteria): low
